Measured values published in patent US4748240A, “Psychotropic bicyclic imides” (American Home Products Corporation, priority 1987, dated 1988).
Where two headings read alike, the source gives them in different places.

Columns and labels:
[1] = tested on: conditioned avoidance responding; experiment: Conditioned avoidance, Discrete Trial (lever press); assay type: in vivo, rat (male CD, Charles River); details: for Conditioned Avoidance, Discrete Trial AB50: p.o.
Source text: (§1) The antipsychotic properties of the compounds of this invention were established by standard pharmacologically accepted procedures involving conditioned avoidance studies in which trained male CD rats (Charles River), 400-450 g. body weight are exposed to a fifteen second warning tone (conditioned stimulus) continued for an additional fifteen seconds accompanied by electric shock. The rat can avoid the electric shock by jumping to an exposed shelf (shelf-jump response). A response during the initial warning tone is considered an avoidance response, while a response during shock delivery is considered as escape response. The shelf-jump response test procedure follows that of Herman et al., Comm. in Psychopharm., 3, pp. 165-171 (1979). The compounds of this invention were tested at a single dose (40 mg./kg. i.p.) in this procedure and were rated relative to their inhibition of conditioned avoidance responding. A similar test procedure (Discrete Trial) in which a lever press was substituted for a shelf-jump was used to establish the oral (p.o.) activity of the test compounds. Orally active compounds were tested over a full dose range and the Avoidance Block activities reported as "AB50 's" (mg./kg.).

[2] = tested on: apomorphine-induced stereotyped behavior and climbing; experiment: Antagonism of apomorphine-induced stereotyped behavior and climbing; assay type: in vivo, mouse (CF-1, Charles River); details: apomorphine 1 mg/kg s.c.; for ED50: Mus musculus, po; for Apomorphine Antagonism, Stereotypy ED50: p.o.
Protocol: Readings are repeated every five minutes during a thirty minute test session. […] The ratio of the ED50 for stereotyped behavior of the ED50 for climbing is calculated.

[3] = tested on: conditioned avoidance responding; experiment: Conditioned avoidance, shelf-jump response; assay type: in vivo, rat (male CD, Charles River); details: Rattus norvegicus, ip; single dose 40 mg/kg
Source text: as §1

D-2 dopamine receptor = molecular target: T1, D-2 dopamine receptor (Rattus norvegicus, UniProt P61169); experiment: [^3 H] Spiroperidol binding inhibition (D-2 dopamine receptor, homogenized limbic brain tissue); details: 1 μM
T1 construct: from tissue; host or cells: homogenized limbic brain tissue
T1 sequence (P61169 whole entry): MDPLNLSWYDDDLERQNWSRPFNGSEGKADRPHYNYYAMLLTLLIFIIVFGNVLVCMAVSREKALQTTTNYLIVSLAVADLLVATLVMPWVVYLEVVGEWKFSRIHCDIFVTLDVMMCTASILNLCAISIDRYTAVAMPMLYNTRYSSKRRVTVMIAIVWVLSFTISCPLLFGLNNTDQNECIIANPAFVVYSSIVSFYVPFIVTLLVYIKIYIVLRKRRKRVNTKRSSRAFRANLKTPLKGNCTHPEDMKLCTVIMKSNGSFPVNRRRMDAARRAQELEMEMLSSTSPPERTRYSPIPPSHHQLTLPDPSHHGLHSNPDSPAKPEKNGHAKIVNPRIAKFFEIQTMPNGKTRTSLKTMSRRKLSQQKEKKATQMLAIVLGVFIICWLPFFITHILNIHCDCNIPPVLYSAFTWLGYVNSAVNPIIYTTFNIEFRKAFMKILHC
Source text: The results of this testing with compounds representative of the invention whose production is exemplified, infra, are as follows: […]

[4] = molecular target: T2, 5-HT1A serotonin receptor (Rattus norvegicus, UniProt P19327); experiment: Inhibition of [^3 H] 8-OH DPAT binding
T2 construct: from tissue
T2 sequence (P19327 1-422): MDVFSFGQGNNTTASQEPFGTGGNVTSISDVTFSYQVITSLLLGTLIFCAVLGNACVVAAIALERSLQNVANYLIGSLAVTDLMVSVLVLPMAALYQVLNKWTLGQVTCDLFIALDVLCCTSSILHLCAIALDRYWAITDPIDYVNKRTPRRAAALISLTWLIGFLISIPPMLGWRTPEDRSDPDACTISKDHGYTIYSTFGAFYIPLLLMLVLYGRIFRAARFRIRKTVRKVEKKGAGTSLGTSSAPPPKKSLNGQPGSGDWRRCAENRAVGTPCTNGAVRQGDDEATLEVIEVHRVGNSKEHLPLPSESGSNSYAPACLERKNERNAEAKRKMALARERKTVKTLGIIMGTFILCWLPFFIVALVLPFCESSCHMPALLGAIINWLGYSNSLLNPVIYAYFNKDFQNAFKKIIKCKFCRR
Source text: 8-OH DPAT (dipropylaminotetralin) from the 5-HT1A serotonin receptor by the procedure of Hall et al., J. Neurochem.

[5] = read-out: Apomorphine Antagonism, Climbing ED50
[6] = read-out: Apomorphine Antagonism, Stereotypy ED50

Question: Which results are given for `O=C1C2CCCC(O2)C(=O)N1CCCCN1CCN(c2cccc(C(F)(F)F)c2)CC1` [Example 19, 3-[4-[4-[3-(Trifluoromethyl)phenyl]-1-piperazinyl]butyl]-9-oxa-3-azabicyclo[3.3.1]nonane-2,4-dione]?
Answer: ED50 ([1]; Rattus norvegicus, po, read-out: Conditioned Avoidance, Discrete Trial AB50): 27 mg/kg; ED50 [2, 5]: 9.06 mg/kg; ED50 [2, 6]: 31 mg/kg; inhibition in vivo at 40 mg/kg [3]: ~80%; inhibition at 1 µM (D-2 dopamine receptor): 97%; Ki [4]: 15 nM

Question: For `CC1(C)C2CCC1C(=O)N(CCCCN1CCN(c3ncccn3)CC1)C2=O` [Example 20, 3-[4-[4-(2-Pyrimidinyl)-1-piperazinyl]butyl]-8,8-dimethyl-3-azabicyclo[3.2.1]octane-2,4-dione], which “Conditioned Avoidance, Discrete Trial AB50” value [1] is on record?
Answer: inactive

Question: And the ED50 [2, 5]?
Answer: 0.2 mg/kg

Question: And the “Apomorphine Antagonism, Stereotypy ED50” value [2]?
Answer: inactive

Question: What about the inhibition in vivo at 40 mg/kg [3] of the same molecule?
Answer: > 20%

Question: And the inhibition at 1 µM (D-2 dopamine receptor)?
Answer: 53%

Question: And the Ki [4]?
Answer: 16 nM

Question: Which results are given for `O=C1C2CC=CCC(C2)C(=O)N1CCCCN1CCN(c2ncccn2)CC1` [Example 21, 8-[4-[4-(2-Pyrimidinyl)-1-piperazinyl]butyl]-8-azabicyclo[4.3.1]dec-3-ene-7,9-dione]?
Answer: Conditioned Avoidance, Discrete Trial AB50 [1]: inactive; ED50 [2, 5]: 11.1 mg/kg; Apomorphine Antagonism, Stereotypy ED50 [2]: inactive; inhibition in vivo at 40 mg/kg [3]: > 20%; inhibition at 1 µM (D-2 dopamine receptor): 63%; Ki [4]: 15 nM

Question: Which results are given for `O=C1C2CCC(C2)C(=O)N1CCCN1CCN(c2cccc(C(F)(F)F)c2)CC1` [Example 22, 3-[3-[4-[3-(Trifluoromethyl)phenyl]-1-piperazinyl]propyl]-3-azabicyclo[3.2.1]octane-2,4-dione]?
Answer: Conditioned Avoidance, Discrete Trial AB50 [1]: weak; ED50 [2, 5]: 29.5 mg/kg; ED50 [2, 6]: 43.3 mg/kg; inhibition in vivo at 40 mg/kg [3]: ~80%; inhibition at 1 µM (D-2 dopamine receptor): 38%; Ki [4]: 4 nM
